How the values were obtained:
[1] = target: T1, Muscarinic acetylcholine receptor M1 (Homo sapiens) (UniProt P11229); details: Compound concentration 10.0 uM
T1 sequence (whole entry): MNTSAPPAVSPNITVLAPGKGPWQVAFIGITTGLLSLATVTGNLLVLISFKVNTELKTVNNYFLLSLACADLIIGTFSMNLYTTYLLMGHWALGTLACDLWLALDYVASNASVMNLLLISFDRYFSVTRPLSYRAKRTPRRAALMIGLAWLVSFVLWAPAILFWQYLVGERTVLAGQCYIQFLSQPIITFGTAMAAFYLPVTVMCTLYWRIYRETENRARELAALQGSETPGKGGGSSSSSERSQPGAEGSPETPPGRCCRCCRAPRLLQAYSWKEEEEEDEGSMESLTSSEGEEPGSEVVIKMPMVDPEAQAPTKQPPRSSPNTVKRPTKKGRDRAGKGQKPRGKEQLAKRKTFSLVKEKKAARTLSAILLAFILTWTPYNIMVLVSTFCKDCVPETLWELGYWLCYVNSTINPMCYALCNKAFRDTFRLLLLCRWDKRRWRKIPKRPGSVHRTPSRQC

[2] = target: D(1A) dopamine receptor (Homo sapiens) (UniProt P21728); details: Compound concentration 10.0 uM
Sequence of D(1A) dopamine receptor (Homo sapiens) (P21728 whole entry): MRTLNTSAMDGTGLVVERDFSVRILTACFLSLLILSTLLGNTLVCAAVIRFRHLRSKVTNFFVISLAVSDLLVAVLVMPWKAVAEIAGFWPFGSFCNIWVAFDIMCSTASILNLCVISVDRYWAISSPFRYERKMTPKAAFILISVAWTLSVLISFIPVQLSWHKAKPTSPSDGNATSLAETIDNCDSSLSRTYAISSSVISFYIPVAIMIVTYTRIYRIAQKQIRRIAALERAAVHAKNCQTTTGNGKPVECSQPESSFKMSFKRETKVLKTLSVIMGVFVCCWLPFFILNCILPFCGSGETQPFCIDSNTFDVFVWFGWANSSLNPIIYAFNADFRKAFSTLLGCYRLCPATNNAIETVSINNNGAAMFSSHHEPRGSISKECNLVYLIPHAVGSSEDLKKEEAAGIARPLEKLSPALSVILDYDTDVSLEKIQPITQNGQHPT

[3] = target: 5-hydroxytryptamine receptor 6 (Homo sapiens) (UniProt P50406); details: Compound concentration 10.0 uM
Sequence of 5-hydroxytryptamine receptor 6 (Homo sapiens) (P50406 whole entry): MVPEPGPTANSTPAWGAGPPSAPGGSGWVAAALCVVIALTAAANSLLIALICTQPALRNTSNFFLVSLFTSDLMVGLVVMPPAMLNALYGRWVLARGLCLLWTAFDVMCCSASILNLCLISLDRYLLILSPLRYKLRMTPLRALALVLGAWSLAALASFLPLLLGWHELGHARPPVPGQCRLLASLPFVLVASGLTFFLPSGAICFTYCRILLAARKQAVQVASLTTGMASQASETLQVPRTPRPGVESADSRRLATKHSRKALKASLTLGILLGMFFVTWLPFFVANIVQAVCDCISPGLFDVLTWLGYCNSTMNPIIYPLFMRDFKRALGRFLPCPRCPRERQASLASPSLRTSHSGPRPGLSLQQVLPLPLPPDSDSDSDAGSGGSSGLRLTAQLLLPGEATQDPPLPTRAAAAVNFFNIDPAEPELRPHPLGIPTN

[4] = target: 5-hydroxytryptamine receptor 2C (Homo sapiens) (UniProt P28335); details: Compound concentration 10.0 uM
Sequence of 5-hydroxytryptamine receptor 2C (Homo sapiens) (P28335 whole entry): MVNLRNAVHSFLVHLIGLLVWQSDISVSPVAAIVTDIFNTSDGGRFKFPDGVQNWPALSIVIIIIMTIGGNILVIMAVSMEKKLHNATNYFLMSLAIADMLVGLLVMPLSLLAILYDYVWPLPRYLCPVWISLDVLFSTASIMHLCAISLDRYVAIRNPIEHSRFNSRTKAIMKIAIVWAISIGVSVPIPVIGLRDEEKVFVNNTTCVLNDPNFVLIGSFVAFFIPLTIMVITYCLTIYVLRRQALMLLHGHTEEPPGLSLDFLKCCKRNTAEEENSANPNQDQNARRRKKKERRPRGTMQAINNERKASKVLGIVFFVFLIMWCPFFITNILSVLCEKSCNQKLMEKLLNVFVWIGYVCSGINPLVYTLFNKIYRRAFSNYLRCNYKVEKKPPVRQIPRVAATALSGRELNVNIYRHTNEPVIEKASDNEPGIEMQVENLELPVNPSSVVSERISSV

[5] = target: T2, 5-hydroxytryptamine receptor 1A (Homo sapiens) (UniProt P08908); details: Compound concentration 10.0 uM
T2 sequence (whole entry): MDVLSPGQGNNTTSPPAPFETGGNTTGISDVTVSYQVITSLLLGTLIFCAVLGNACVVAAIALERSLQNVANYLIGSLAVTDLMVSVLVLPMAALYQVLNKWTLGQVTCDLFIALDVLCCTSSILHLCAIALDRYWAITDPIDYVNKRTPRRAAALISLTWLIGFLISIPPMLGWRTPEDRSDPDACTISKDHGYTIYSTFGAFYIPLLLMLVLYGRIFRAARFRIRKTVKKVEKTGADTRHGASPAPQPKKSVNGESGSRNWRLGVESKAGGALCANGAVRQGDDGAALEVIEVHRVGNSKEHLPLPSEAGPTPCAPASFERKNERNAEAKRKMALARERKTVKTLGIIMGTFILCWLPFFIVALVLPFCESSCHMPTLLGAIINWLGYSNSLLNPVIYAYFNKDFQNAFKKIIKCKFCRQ

[6] = target: Beta-1 adrenergic receptor (Homo sapiens) (UniProt P08588); details: Compound concentration 10.0 uM
Sequence of Beta-1 adrenergic receptor (Homo sapiens) (P08588 whole entry, looked up): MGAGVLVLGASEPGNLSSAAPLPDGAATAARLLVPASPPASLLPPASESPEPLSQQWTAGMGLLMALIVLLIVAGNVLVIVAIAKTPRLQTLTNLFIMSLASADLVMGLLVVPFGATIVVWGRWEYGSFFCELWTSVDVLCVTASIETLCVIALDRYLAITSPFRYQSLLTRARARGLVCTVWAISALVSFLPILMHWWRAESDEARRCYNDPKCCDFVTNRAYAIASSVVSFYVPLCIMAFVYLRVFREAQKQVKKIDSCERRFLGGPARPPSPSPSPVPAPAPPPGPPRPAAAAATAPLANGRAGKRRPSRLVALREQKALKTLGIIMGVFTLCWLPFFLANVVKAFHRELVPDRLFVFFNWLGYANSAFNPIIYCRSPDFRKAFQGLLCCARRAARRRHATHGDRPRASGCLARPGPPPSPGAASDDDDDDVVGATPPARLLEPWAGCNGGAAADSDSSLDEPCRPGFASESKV

[7] = target: Kappa-type opioid receptor (Homo sapiens) (UniProt P41145); details: Compound concentration 10.0 uM
Sequence of Kappa-type opioid receptor (Homo sapiens) (P41145 whole entry): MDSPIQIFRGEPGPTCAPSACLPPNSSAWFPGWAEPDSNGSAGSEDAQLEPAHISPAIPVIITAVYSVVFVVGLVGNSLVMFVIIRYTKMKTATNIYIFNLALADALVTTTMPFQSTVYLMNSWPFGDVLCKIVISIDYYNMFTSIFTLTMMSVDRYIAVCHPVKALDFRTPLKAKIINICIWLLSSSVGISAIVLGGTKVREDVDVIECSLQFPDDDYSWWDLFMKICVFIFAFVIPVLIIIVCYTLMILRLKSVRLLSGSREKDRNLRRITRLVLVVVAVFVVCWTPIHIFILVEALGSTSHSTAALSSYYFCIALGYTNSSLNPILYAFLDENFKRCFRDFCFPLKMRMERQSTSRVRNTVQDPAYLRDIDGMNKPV

[8] = target: Estradiol 17-beta-dehydrogenase 11 (Homo sapiens, UniProt Q8NBQ5); test: Enzymatic assay (hHSD17B11); assay type: functional
Sequence of Estradiol 17-beta-dehydrogenase 11 (Q8NBQ5 whole entry): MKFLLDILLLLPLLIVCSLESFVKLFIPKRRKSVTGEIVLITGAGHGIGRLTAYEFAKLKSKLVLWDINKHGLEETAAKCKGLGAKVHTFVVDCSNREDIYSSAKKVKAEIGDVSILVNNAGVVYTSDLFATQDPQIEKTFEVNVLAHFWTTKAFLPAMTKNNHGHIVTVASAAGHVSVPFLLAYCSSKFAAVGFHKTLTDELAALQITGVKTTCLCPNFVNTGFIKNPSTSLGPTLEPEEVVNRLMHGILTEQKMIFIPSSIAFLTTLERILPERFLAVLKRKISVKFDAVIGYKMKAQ

[9] = target: Sigma intracellular receptor 2 (Homo sapiens) (UniProt Q5BJF2); details: Compound concentration 10.0 uM
Sequence of Sigma intracellular receptor 2 (Homo sapiens) (Q5BJF2 whole entry): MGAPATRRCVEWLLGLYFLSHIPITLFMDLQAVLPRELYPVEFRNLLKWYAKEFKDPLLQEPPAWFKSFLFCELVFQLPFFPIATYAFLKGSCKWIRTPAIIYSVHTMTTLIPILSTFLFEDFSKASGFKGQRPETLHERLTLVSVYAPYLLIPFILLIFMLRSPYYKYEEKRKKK

Row | SMILES | inhibition [1] [%] | inhibition [2] [%] | inhibition [3] [%] | inhibition [4] [%] | inhibition [5] [%] | inhibition [6] [%] | inhibition [7] [%] | IC50 [8] | inhibition [9] [%]
1 | CCn1c(=O)c(C)cn(Cc2nnc(-c3ccc(F)c(O)c3F)s2)c1=O | 5.93 | -6.39 | 0.69 | -2.92 | 29.3 | – | – | – | –
2 | CCn1c(=O)c(C)cn(Cc2nnc(-c3ccc(F)c(OC)c3F)s2)c1=O | – | – | – | – | – | -1.07 | 11.7 | > 10 µM (not active) | -5.43
